In patent publication US20080233202A1, “Fungicidal Compositions” (priority 2004, published 2008):

Columns and labels:
[1] = tested on: Botrytis cinerea, Cladosporium cladosporiodes, and Monilinia fructicola spores; experiment: Spore germination inhibition, overall rating over the three fungi; assay type: cell-based; conditions: sum of all the germination scores; maximum 12 (greatest inhibition), minimum 0
Protocol: (§1) The effect of selected treatments on the germination of three other important horticultural fungi, Botrytis cinerea (causal agent of grey mould on grapes, kiwifruit, tomatoes, strawberries, etc), Monilinia fructicola (causal agent of brown rot on stonefruit), and Cladosporium cladosporiodes (one of the fungi that can cause sooty mould) were also assessed using the 96-multiwell assay of Wilson et al (10).
The Overall Rating is the sum of all the germination scores for each treatment (maximum possible value: 12 (greatest inhibition); minimum: 0 (no inhibition)).

[2] = tested on: Squash (Cucurbita maxima) cv ‘Delica’; experiment: Trial 3 leaf health rating and phyto-toxicity; assay type: in vivo; design: key: A: Perfect condition - no abiotic or biotic blemishes.; B: Small blemishes e.g. chlorotic patches, rubbing, insect damage; C: Severe/advanced chlorosis, necrosis or leaf distortion; D: Leaf dead
Protocol: Qualitative assessments of leaf health/condition were made at the same time as disease severity assessments, using the arbitrary scale described below.
Leaf health ratings were assessed using the criteria described in Table 4. Each value presented in Table 12 is a median value rather than an arithmetic mean.

[3] = tested on: cucurbit PM pathogen Sphaerotheca fuliginea; experiment: Trial 3 additional treatments, PM disease severity on ‘Delica’ squash leaves; assay type: in vivo; conditions: non-inoculated leaves (FIG. 7)
Excerpt: Treatments were first applied 3 days after artificial inoculation of leaf 1, and at weekly intervals thereafter. There were 4 replicates per treatment, with two replicates per table per glasshouse.

[4] = tested on: Cladosporium cladosporiodes spores; experiment: Spore germination inhibition, 96-multiwell assay; assay type: cell-based; design: key: ****: No germination (score 4); ***: Slight germination (3); **: Moderate germination (2); *: Germination, less than control (1); —: No activity = germination same as the control (score 0); conditions: after 24 hours incubation at 19° C.
Protocol: as §1

[5] = tested on: Botrytis cinerea spores; experiment: Spore germination inhibition, 96-multiwell assay; assay type: cell-based; design: key: ****: No germination (score 4); ***: Slight germination (3); **: Moderate germination (2); *: Germination, less than control (1); —: No activity = germination same as the control (score 0); conditions: after 24 hours incubation at 19° C.
Protocol: as §1

[6] = tested on: Monilinia fructicola spores; experiment: Spore germination inhibition, 96-multiwell assay; assay type: cell-based; design: key: ****: No germination (score 4); ***: Slight germination (3); **: Moderate germination (2); *: Germination, less than control (1); —: No activity = germination same as the control (score 0); conditions: after 24 hours incubation at 19° C.
Protocol: as §1

[7] = tested on: cucurbit PM pathogen Sphaerotheca fuliginea; experiment: Trial 3 main treatments, PM disease severity on ‘Delica’ squash leaves; assay type: in vivo
Protocol: Squash (Cucurbita maxima) cv ‘Delica’ were raised and the first true leaf on each plant was artificially inoculated as in Trial 1.
Treatment applications were normally at 7-day intervals (although 14 and 21 day intervals were also used in Trial 3) and involved spraying all leaves to run-off (approximately 5 ml per leaf) using hand-held mister-bottles. The first application commenced 3-4 days after artificial inoculation (except for elicitor treatments in Trial 3), when the non-inoculated leaves on plants were still largely disease-free, and plants had up to 8 true leaves (i.e. were 5-6 weeks old).
Disease severity on true leaves 1-8 was rated weekly or fortnightly as discussed above.
Data were analysed as a repeated measures design (RMD) to determine the treatment effect on disease severity over time. Treatment differences at final disease assessment were also assessed as a randomised block design (RBD), by analysis of variance (ANOVA), with means separation by Fisher's Least Significant Difference (LSD) (P<0.05), using SAS software, version 8.01 TS (SAS Institute, Cary, N.C.).
Eight replicate squash plants per treatment (1 replicate per block) were assessed.
The first true leaf of each plant was artificially inoculated with PM, while all other leaves on the plant were allowed to infect naturally. Elicitors (treatments 13-15) were first applied 5 days before artificial inoculation, to allow time for induction of host defences prior to advent of the PM fungus, and every three weeks thereafter. […] All other treatments were first applied 3 days after artificial inoculation and at weekly (treatments 1-4, 7-8, 10-12, 16-20), fortnightly (treatment 5), or 3 weekly intervals (treatments 6 and 9) thereafter.
Treatment effect over time at 0, 2, 4, 6 and 7 weeks was assessed.

Di-glycerine-mono-laurate [DGML] was tested, and the “Overall Rating” value [1] was 10, the leaf health rating ([2]; Trial 3 additional, non-inoculated leaves, after 7 weeks) was “E” and the “course of PM disease severity over time” value [3] was “increased significantly over time”. For the same compound, the “Germination inhibition, Clado.” value [4] was “****”, the “Germination inhibition, Botrytis” value [5] was “**” and the “Germination inhibition, Monilinia” value [6] was “****”.

`CCCCC/C=C\C/C=C\CCCCCCCC(=O)O` [Linol, Linoleic acid] was tested, and the “course of PM disease over time” value ([7]; inoculated leaves) was “disease increased steadily throughout the trial”, the “PM Disease Rating” value ([7]; inoculated leaves, 0 wks, scale 0-6 of Table 1) was 2.63 and the “PM Disease Rating” value ([7]; inoculated leaves, 2 wks) was 5.25. The “PM Disease Rating” value ([7]; inoculated leaves, 4 wks) was 5.88, the “PM Disease Rating” value ([7]; inoculated leaves, 6 wks) was 6.00 and the “PM Disease Rating” value ([7]; inoculated leaves, 7 wks) was 6.00. The “course of natural PM infections over time” value ([7]; non-inoculated leaves, 0-7 weeks) was “rapid breakdown in protective activity”, the “PM Disease Rating” value ([7]; non-inoculated leaves, 0 wks, scale 0-6 of Table 1) was 0.63 and the “PM Disease Rating” value ([7]; non-inoculated leaves, 2 wks) was 2.77. For the same compound, the “PM Disease Rating” value ([7]; non-inoculated leaves, 4 wks) was 5.56, the “PM Disease Rating” value ([7]; non-inoculated leaves, 6 wks) was 6.00 and the “PM Disease Rating” value ([7]; non-inoculated leaves, 7 wks) was 6.00. For the same compound, the “Overall Rating” value [1] was 0, the “leaf health rating” value ([2]; Trial 3 main, non-inoculated leaves after 7 weeks of treatment application, median value) was “F (More than 20% of the leaf area is dead)” and the “Germination inhibition, Clado.” value [4] was “—”. The “Germination inhibition, Botrytis” value [5] was “—” and the “Germination inhibition, Monilinia” value [6] was “—”.
